The values below come from patent US8580918B2, “Peptidic GLP-2 agonists” (Ferring B.V., priority 2009, dated 2013).

Where a SMILES comes first, the peptide text is derived from it. [ ]: non-standard residue; d: D form. dPhe(3-Cl) = N[C@H](Cc1cccc(Cl)c1)C(=O)O; dPhe(2-Cl) = N[C@H](Cc1ccccc1Cl)C(=O)O; d2Thi = N[C@H](Cc1cccs1)C(=O)O; d3Thi = N[C@H](Cc1ccsc1)C(=O)O; Nle = CCCC[C@H](N)C(=O)O

This data set in a line: Pharmacokinetics in rats after intravenous bolus injection (systemic clearance). The settings on record: rat, plasma, 0.2 mg FB/kg, adult male Sprague-Dawley rats, i.v. bolus, dose 0.20 mg FB/kg, read-out: CL (ml/kg/min) Average. Type of data set: in vivo. In a few lines: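 Adult male Sprague-Dawley rats (3-4, doubly cannulated) given IV jugular bolus at 0.1-1.0 mg/kg; serial carotid blood to K2EDTA plasma, LC/MS/MS quantitation. CL = dose/kg divided by AUC∞ (noncompartmental, trapezoid); mean ± SD.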
Regarding `CCCC[C@H](NC(=O)[C@H](CCC(=O)O)NC(=O)[C@H](CC(=O)O)NC(=O)[C@H](CO)NC(=O)[C@H](Cc1ccccc1)NC(=O)[C@H](CO)NC(=O)CNC(=O)[C@H](CC(=O)O)NC(=O)CNC(=O)[C@@H](N)Cc1c[nH]cn1)C(=O)N[C@H](Cc1ccccc1Cl)C(=O)N[C@H](C(=O)N[C@H](C(=O)N[C@@H](CC(C)C)C(=O)N[C@@H](CC(=O)O)C(=O)N[C@@H](CC(N)=O)C(=O)N[C@@H](CC(C)C)C(=O)N[C@@H](C)C(=O)N[C@@H](C)C(=O)N[C@@H](CCCNC(=N)N)C(=O)N[C@@H](CC(=O)O)C(=O)N[C@@H](Cc1ccccc1)C(=O)N[C@H](C(=O)N[C@@H](CC(N)=O)C(=O)N[C@@H](Cc1c[nH]c2ccccc12)C(=O)N[C@@H](CC(C)C)C(=O)N[C@H](C(=O)N[C@@H](CCC(N)=O)C(=O)N[C@H](C(=O)N[C@@H](CCCCN)C(N)=O)[C@@H](C)O)[C@@H](C)CC)[C@@H](C)CC)[C@@H](C)CC)[C@@H](C)O` [Compound 40, [Gly2,Nle10,D-2-Cpa11] hGLP-2 (1-30)-NH2] (H-HGDGSFSDE[Nle][dPhe(2-Cl)]TILDNLAARDFINWLIQTK-NH2), the clearance worked out at 0.73 mL/kg/min.
Next, `CCCC[C@H](NC(=O)[C@H](CCC(=O)O)NC(=O)[C@H](CC(=O)O)NC(=O)[C@H](CO)NC(=O)[C@H](Cc1ccccc1)NC(=O)[C@H](CO)NC(=O)CNC(=O)[C@H](CC(=O)O)NC(=O)CNC(=O)[C@@H](N)Cc1c[nH]cn1)C(=O)N[C@H](Cc1ccsc1)C(=O)N[C@H](C(=O)N[C@H](C(=O)N[C@@H](CC(C)C)C(=O)N[C@@H](CC(=O)O)C(=O)N[C@@H](CC(N)=O)C(=O)N[C@@H](CC(C)C)C(=O)N[C@@H](C)C(=O)N[C@@H](C)C(=O)N[C@@H](CCCNC(=N)N)C(=O)N[C@@H](CC(=O)O)C(=O)N[C@@H](Cc1ccccc1)C(=O)N[C@H](C(=O)N[C@@H](CC(N)=O)C(=O)N[C@@H](Cc1c[nH]c2ccccc12)C(=O)N[C@@H](CC(C)C)C(=O)N[C@H](C(=O)N[C@@H](CCC(N)=O)C(=O)N[C@H](C(=O)N[C@@H](CCCCN)C(N)=O)[C@@H](C)O)[C@@H](C)CC)[C@@H](C)CC)[C@@H](C)CC)[C@@H](C)O` [Compound 42, [Gly2,Nle10,D-3-Thi11] hGLP-2 (1-30)-NH2] (H-HGDGSFSDE[Nle][d3Thi]TILDNLAARDFINWLIQTK-NH2): 1.3 mL/kg/min.
As for `CCCC[C@H](NC(=O)[C@H](CCC(=O)O)NC(=O)[C@H](CC(=O)O)NC(=O)[C@H](CO)NC(=O)[C@H](Cc1ccccc1)NC(=O)[C@H](CO)NC(=O)CNC(=O)[C@H](CC(=O)O)NC(=O)CNC(=O)[C@@H](N)Cc1c[nH]cn1)C(=O)N[C@H](Cc1cccc(Cl)c1)C(=O)N[C@H](C(=O)N[C@H](C(=O)N[C@@H](CC(C)C)C(=O)N[C@@H](CC(=O)O)C(=O)N[C@@H](CC(N)=O)C(=O)N[C@@H](CC(C)C)C(=O)N[C@@H](C)C(=O)N[C@@H](C)C(=O)N[C@@H](CCCNC(=N)N)C(=O)N[C@@H](CC(=O)O)C(=O)N[C@@H](Cc1ccccc1)C(=O)N[C@H](C(=O)N[C@@H](CC(N)=O)C(=O)N[C@@H](Cc1c[nH]c2ccccc12)C(=O)N[C@@H](CC(C)C)C(=O)N[C@H](C(=O)N[C@@H](CCC(N)=O)C(=O)N[C@H](C(=O)N[C@@H](CCCCN)C(N)=O)[C@@H](C)O)[C@@H](C)CC)[C@@H](C)CC)[C@@H](C)CC)[C@@H](C)O` [Compound 44, [Gly2,Nle10,D-3-Cpa11] hGLP-2 (1-30)-NH2] (H-HGDGSFSDE[Nle][dPhe(3-Cl)]TILDNLAARDFINWLIQTK-NH2), the clearance was 0.32 mL/kg/min.
Regarding `CCCC[C@H](NC(=O)[C@H](CCC(=O)O)NC(=O)[C@H](CC(=O)O)NC(=O)[C@H](CO)NC(=O)[C@H](Cc1ccccc1)NC(=O)[C@H](CO)NC(=O)CNC(=O)[C@H](CC(=O)O)NC(=O)CNC(=O)[C@@H](N)Cc1c[nH]cn1)C(=O)N[C@H](Cc1cccs1)C(=O)N[C@H](C(=O)N[C@H](C(=O)N[C@@H](CC(C)C)C(=O)N[C@@H](CC(=O)O)C(=O)N[C@@H](CC(C)C)C(=O)N[C@@H](CC(C)C)C(=O)N[C@@H](C)C(=O)N[C@@H](C)C(=O)N[C@@H](CCCNC(=N)N)C(=O)N[C@@H](CC(=O)O)C(=O)N[C@@H](Cc1ccccc1)C(=O)N[C@H](C(=O)N[C@@H](CC(N)=O)C(=O)N[C@@H](Cc1c[nH]c2ccccc12)C(=O)N[C@@H](CC(C)C)C(=O)N[C@H](C(=O)N[C@@H](CCC(N)=O)C(=O)N[C@H](C(=O)N[C@@H](CCCCN)C(N)=O)[C@@H](C)O)[C@@H](C)CC)[C@@H](C)CC)[C@@H](C)CC)[C@@H](C)O` [Compound 45, [Gly2,Nle10,D-Thi11,Leu16] hGLP-2 (1-30)-NH2] (H-HGDGSFSDE[Nle][d2Thi]TILDLLAARDFINWLIQTK-NH2), the clearance amounted to 0.33 mL/kg/min.
For the molecule `CCCC[C@H](NC(=O)[C@H](CCC(=O)O)NC(=O)[C@H](CC(=O)O)NC(=O)[C@H](CO)NC(=O)[C@H](Cc1ccccc1)NC(=O)[C@H](CO)NC(=O)CNC(=O)[C@H](CC(=O)O)NC(=O)CNC(=O)[C@@H](N)Cc1cnc[nH]1)C(=O)N[C@H](Cc1cccs1)C(=O)N[C@H](C(=O)N[C@H](C(=O)N[C@@H](CC(C)C)C(=O)N[C@@H](CC(=O)O)C(=O)N[C@@H](Cc1ccccc1)C(=O)N[C@@H](CC(C)C)C(=O)N[C@@H](C)C(=O)N[C@@H](C)C(=O)N[C@@H](CCCNC(=N)N)C(=O)N[C@@H](CC(=O)O)C(=O)N[C@@H](Cc1ccccc1)C(=O)N[C@H](C(=O)N[C@@H](CC(N)=O)C(=O)N[C@@H](Cc1c[nH]c2ccccc12)C(=O)N[C@@H](CC(C)C)C(=O)N[C@H](C(=O)N[C@@H](CCC(N)=O)C(=O)N[C@H](C(=O)N[C@@H](CCCCN)C(N)=O)[C@@H](C)O)[C@@H](C)CC)[C@@H](C)CC)[C@@H](C)CC)[C@@H](C)O` [Compound 46, [Gly2,Nle10,D-Thi11,Phe16] hGLP-2 (1-30)-NH2] (H-HGDGSFSDE[Nle][d2Thi]TILDFLAARDFINWLIQTK-NH2), the clearance is 0.26 mL/kg/min.
Next, `CCCC[C@H](NC(=O)[C@H](CCC(=O)O)NC(=O)[C@H](CC(=O)O)NC(=O)[C@H](CO)NC(=O)[C@H](Cc1ccccc1)NC(=O)[C@H](CO)NC(=O)CNC(=O)[C@H](CC(=O)O)NC(=O)CNC(=O)[C@@H](N)Cc1c[nH]cn1)C(=O)N[C@H](Cc1ccccc1)C(=O)N[C@H](C(=O)N[C@H](C(=O)N[C@@H](CC(C)C)C(=O)N[C@@H](CC(=O)O)C(=O)N[C@@H](Cc1ccccc1)C(=O)N[C@@H](CC(C)C)C(=O)N[C@@H](C)C(=O)N[C@@H](C)C(=O)N[C@@H](CCCNC(=N)N)C(=O)N[C@@H](CC(=O)O)C(=O)N[C@@H](Cc1ccccc1)C(=O)N[C@H](C(=O)N[C@@H](CC(N)=O)C(=O)N[C@@H](Cc1c[nH]c2ccccc12)C(=O)N[C@@H](CC(C)C)C(=O)N[C@H](C(=O)N[C@@H](CCC(N)=O)C(=O)N[C@H](C(=O)N[C@@H](CCCCN)C(N)=O)[C@@H](C)O)[C@@H](C)CC)[C@@H](C)CC)[C@@H](C)CC)[C@@H](C)O` [Compound 47, [Gly2,Nle10,D-Phe11,Phe16] hGLP-2 (1-30)-NH2] (H-HGDGSFSDE[Nle][dF]TILDFLAARDFINWLIQTK-NH2): 0.3 mL/kg/min; `CCCC[C@H](NC(=O)[C@H](CCC(=O)O)NC(=O)[C@H](CC(=O)O)NC(=O)[C@H](CO)NC(=O)[C@H](Cc1ccccc1)NC(=O)[C@H](CO)NC(=O)CNC(=O)[C@H](CC(=O)O)NC(=O)CNC(=O)[C@@H](N)Cc1cnc[nH]1)C(=O)N[C@H](Cc1ccccc1)C(=O)N[C@H](C(=O)N[C@H](C(=O)N[C@@H](CC(C)C)C(=O)N[C@@H](CC(=O)O)C(=O)N[C@@H](CC(C)C)C(=O)N[C@@H](CC(C)C)C(=O)N[C@@H](C)C(=O)N[C@@H](C)C(=O)N[C@@H](CCCNC(=N)N)C(=O)N[C@@H](CC(=O)O)C(=O)N[C@@H](Cc1ccccc1)C(=O)N[C@H](C(=O)N[C@@H](CC(N)=O)C(=O)N[C@@H](Cc1c[nH]c2ccccc12)C(=O)N[C@@H](CC(C)C)C(=O)N[C@H](C(=O)N[C@@H](CCC(N)=O)C(=O)N[C@H](C(=O)N[C@@H](CCCCN)C(N)=O)[C@@H](C)O)[C@@H](C)CC)[C@@H](C)CC)[C@@H](C)CC)[C@@H](C)O` [Compound 48, [Gly2,Nle10,D-Phe11,Leu16] hGLP-2 (1-30)-NH2] (H-HGDGSFSDE[Nle][dF]TILDLLAARDFINWLIQTK-NH2): 0.37 mL/kg/min; `CCCC[C@H](NC(=O)[C@H](CCC(=O)O)NC(=O)[C@H](CC(=O)O)NC(=O)[C@H](CO)NC(=O)[C@H](Cc1ccccc1)NC(=O)[C@H](CO)NC(=O)CNC(=O)[C@H](CC(=O)O)NC(=O)CNC(=O)[C@@H](N)Cc1c[nH]cn1)C(=O)N[C@H](Cc1ccccc1)C(=O)N[C@H](C(=O)N[C@H](C(=O)N[C@@H](CC(C)C)C(=O)N[C@@H](CC(=O)O)C(=O)N[C@@H](Cc1ccc(O)cc1)C(=O)N[C@@H](CC(C)C)C(=O)N[C@@H](C)C(=O)N[C@@H](C)C(=O)N[C@@H](CCCNC(=N)N)C(=O)N[C@@H](CC(=O)O)C(=O)N[C@@H](Cc1ccccc1)C(=O)N[C@H](C(=O)N[C@@H](CC(N)=O)C(=O)N[C@@H](Cc1c[nH]c2ccccc12)C(=O)N[C@@H](CC(C)C)C(=O)N[C@H](C(=O)N[C@@H](CCC(N)=O)C(=O)N[C@H](C(=O)N[C@@H](CCCCN)C(N)=O)[C@@H](C)O)[C@@H](C)CC)[C@@H](C)CC)[C@@H](C)CC)[C@@H](C)O` [Compound 49, [Gly2,Nle10,D-Phe11,Tyr16] hGLP-2 (1-30)-NH2] (H-HGDGSFSDE[Nle][dF]TILDYLAARDFINWLIQTK-NH2): 0.48 mL/kg/min.
In the case of `CCCC[C@H](NC(=O)[C@H](CCC(=O)O)NC(=O)[C@H](CC(=O)O)NC(=O)[C@H](CO)NC(=O)[C@H](Cc1ccccc1)NC(=O)[C@H](CO)NC(=O)CNC(=O)[C@H](CC(=O)O)NC(=O)CNC(=O)[C@@H](N)Cc1c[nH]cn1)C(=O)N[C@H](Cc1cccs1)C(=O)N[C@H](C(=O)N[C@H](C(=O)N[C@@H](CC(C)C)C(=O)N[C@@H](CC(=O)O)C(=O)N[C@@H](Cc1ccc(O)cc1)C(=O)N[C@@H](CC(C)C)C(=O)N[C@@H](C)C(=O)N[C@@H](C)C(=O)N[C@@H](CCCNC(=N)N)C(=O)N[C@@H](CC(=O)O)C(=O)N[C@@H](Cc1ccccc1)C(=O)N[C@H](C(=O)N[C@@H](CC(N)=O)C(=O)N[C@@H](Cc1c[nH]c2ccccc12)C(=O)N[C@@H](CC(C)C)C(=O)N[C@H](C(=O)N[C@@H](CCC(N)=O)C(=O)N[C@H](C(=O)N[C@@H](CCCCN)C(N)=O)[C@@H](C)O)[C@@H](C)CC)[C@@H](C)CC)[C@@H](C)CC)[C@@H](C)O` [Compound 50, [Gly2,Nle10,D-Thi11,Tyr16] hGLP-2 (1-30)-NH2] (H-HGDGSFSDE[Nle][d2Thi]TILDYLAARDFINWLIQTK-NH2), the clearance is 0.52 mL/kg/min.
